What is called solubility is the concentration that dissolves in the medium under given conditions. A lower solubility goes with a poorly soluble substance.

Values joined by “and” are separate entries in the source; they are usually repeats but may differ in a detail not shown here. Identical values can stand only once. Like-named read-outs stand apart in the source and are kept apart here. Marks after values point to notes of the source that are not given here.

For one data set, the system named is schistosomes. As to conditions: cited from earlier work.
Data set [1] is described as follows: Kinetic solubility by nephelometry. Type of data set: physicochemical. As to conditions: for sol6.5 / sol2.0: kinetic solubility, 1% DMSO, 30 min; for sol6.5: pH 6.5 phosphate buffer; for sol2.0: 0.01 M HCl (approx. pH 2.0).
The test system of data set [2] is juvenile stage of S. mansoni. As to conditions: mice, single 200 mg/kg oral dose; cited from earlier work.
Another data set deals with S. mansoni. The following applies: adult infection, mice, single 400 mg/kg oral dose, cited from earlier work.
Another data set concerns osteosarcoma (U-2 OS). As to the kind of experiment: Cytotoxicity screen. The following applies: 24 h, Alamar blue, data not shown. Type of data set: cell-based, human. A general note: Resazurin is reduced to fluorescent resorufin, in cell work by metabolically active cells.
Another data set concerns kidney (HEK 293T). As to the kind of experiment: Cytotoxicity screen. Type of data set: cell-based, human. The following applies: 24 h, Alamar blue, data not shown.
A short description of data set [3]: In vitro metabolic stability in mouse liver microsomes. Type of data set: in vitro ADME. The following applies: 37 °C, 0.4 mg/mL protein, NADPH. For orientation: Liver microsomes are vesicles of endoplasmic reticulum, rich in cytochrome P450 enzymes.
The test system of data set [4] is foreskin fibroblast (HFF). As to the kind of experiment: Cytotoxicity screen. It is filed as cell-based, human. The following applies: 24 h, Alamar blue, data not shown.
Data set [5] is described as follows: In vitro metabolic stability in human liver microsomes. Type of data set: in vitro ADME. As to conditions: for h CLint: 37 °C, 0.4 mg/mL protein, NADPH.
The test system of another data set is hepatocyte (HC-04). As to the kind of experiment: Cytotoxicity screen. The following applies: HC-04, 24 h, Alamar blue; data not shown. It is filed as cell-based, human.

Consider `c1cc([C@H]2CC[C@]3(CC2)OO[C@]2(O3)C3CC4CC(C3)CC2C4)ccc1OCCN1CCOCC1` [Compound 1], for which the antischistosomal activity entry in the data set on schistosomes is on record as “no antischistosomal activity”.

`O=C(O)COc1ccc([C@H]2CC[C@]3(CC2)OOC2(O3)C3CC4CC(C3)CC2C4)cc1` (some centres unmarked) [Compound 2]: the sol6.5 in data set [1] is 6.3 to 12.5 µg/mL. In data set [2], the “S. mansoni WBR (%) 1 × 200 mg/kg po” value was 100^a %. In the data set on S. mansoni (400 mg/kg), the “S. mansoni WBR (%) 1 × 400 mg/kg po” value is given as 80^i,j %.

As to `O=C(O)c1ccc([C@H]2CC[C@]3(CC2)OOC2(O3)C3CC4CC(C3)CC2C4)cc1` (some centres unmarked) [Compound 3], the “S. mansoni WBR (%) 1 × 200 mg/kg po” value in [2] is 100% and 84^a %. For the same compound, the “S. mansoni WBR (%) 1 × 400 mg/kg po” value in the data set on S. mansoni is given as 74^i,j %.

For the compound `O=C(O)COc1ccc([C@H]2CC[C@]3(CC2)OOC2(O3)C3CC4CC(C3)CC2C4)cc1Cl` (stereo partly drawn) [Compound 7, cis-Adamantane-2-spiro-3 ′−8 ′-[3-chloro-4-(carboxymethoxy)-phenyl]-1′,2′,4′-trioxaspiro[4.5]decan], the “cytotoxicity: concentration without inhibition of the cell line” value (with osteosarcoma (U-2 OS); in the data set on kidney (HEK 293T); in [4]; in the data set with hepatocyte (HC-04)) was over 50 µM throughout. Also, the “m CLint” value in data set [3] is 8 μL/(min mg) protein. Moreover, the “h CLint” value in data set [5] was < 7 μL/(min mg) protein. In [1], this compound returned a sol6.5 of 3.1 to 6.3 µg/mL.

Consider `O=C(O)CNC(=O)COc1ccc([C@H]2CC[C@]3(CC2)OOC2(O3)C3CC4CC(C3)CC2C4)cc1` (stereo partly drawn) [Compound 14, cis-Adamantane-2-spiro-3′−8′-[4-[2-[(carboxymethyl)amino]-2-oxoethoxy]phenyl]-1′,2′,4′-trioxaspiro[4.5]decane], for which the “cytotoxicity: concentration without inhibition of the cell line” value (in the data set with osteosarcoma (U-2 OS); with kidney (HEK 293T); in data set [4]; with hepatocyte (HC-04)) was over 50 µM each time. Besides, the “conversion to 2 in human liver microsomes” value in data set [5] is recorded as “converted to 2 in human”. The “h CLint” value in data set [5] is given as <7/CND^a,b μL/(min mg) protein. The compound further yielded a sol2.0 in data set [1] of 12.5 to 25 µg/mL.

Turning to `O=C(O)CN1CCC(Oc2ccc([C@H]3CC[C@]4(CC3)OOC3(O4)C4CC5CC(C4)CC3C5)cc2)CC1` (some centres unmarked) [Compound 16], the “cytotoxicity: concentration without inhibition of the cell line” value (with osteosarcoma (U-2 OS); with kidney (HEK 293T); in data set [4]; in the data set on hepatocyte (HC-04)) was over 50 µM in each case. In addition, in data set [3], the “m CLint” value is on record as <7/<7 μL/(min mg) protein. Also, the “h CLint” value in [5] was <7/<7 μL/(min mg) protein. Moreover, in [1] (DMSO), the solubility was under 1000 µg/mL.

`CS(=O)(=O)O.O=C(O)CNCc1ccc([C@H]2CC[C@]3(CC2)OOC2(O3)C3CC4CC(C3)CC2C4)cc1` (stereo partly drawn) [Compound 17, cis-Adamantane-2-spiro-3′−8′-[4-[[(carboxymethyi)amino]-methyl]phenyi]-1′,2′,4′-trioxaspiro[4.5]decane mesyiate]: the “cytotoxicity: concentration without inhibition of the cell line” value (in the data set with osteosarcoma (U-2 OS); with kidney (HEK 293T); in [4]; with hepatocyte (HC-04)) was over 50 µM in each case. Moreover, in data set [3], the “m CLint” value is 10 μL/(min mg) protein. The “h CLint” value in data set [5] was < 7 μL/(min mg) protein. Moreover, the sol2.0 in data set [1] is under 12.5 µg/mL. The compound further registered a sol6.5 in [1] of under 6.3 µg/mL.

The values are drawn from article PMC7182039 (Journal of medicinal chemistry, 2020).
